Results reported in patent publication EP0297435A2, “Aminopropanol derivatives of 3-(3'-hydroxyphenyl)-1-propanone, process for their preparation and medicines containing these compounds” (Helopharm W. Petrik GmbH & Co.KG., priority 1987, dated 1989).

How the values were obtained:
[1] = test system: Meerschweinchen-Papillarmuskel; assay: Effect on contraction force of the heart, guinea pig papillary muscle; format: cell-based; conditions: contraction force (negative inotropy); for IC20: read-out: C20 CF
From the text: Die Wirkung auf die Kontraktionskraft des Herzens wurde am Meerschweinchen-Papillarmuskel untersucht. Hämodynamische Studien wurden bei gesunden, wie auch akut infarzierten Hunden durchgeführt.

[2] = test system: Purkinje-Fasern aus Hundeherzen; assay: Electrophysiological studies on Purkinje fibres from dog hearts (Vmax); format: cell-based, Hund; conditions: for IC20 / C20 Vmax: Purkinje-Fasern aus Hundeherzen; for IC20: read-out: C20 Vmax; for Prematurity Faktor Vmax: Vorzeitigkeitsindex, activity on premature extrasystoles; for Rate-Faktor von Vmax: specifically stronger activity at higher frequencies
From the text: Die antiarrhythmische Wirksamkeit der erfindungsgemäßen Verbindungen wurde sowohl anhand von elektrophysiologischen Studien an Purkinje-Fasern aus Hundeherzen sowie mit Hilfe von Ouabaininduzierten ventrikulären Tachykardien bei Hunden bestimmt. […]
Als zusätzliches Kriterium wurde der Vorzeitigkeitsindex (Prematurity-Faktor) bestimmt, der die erwünschte Wirksamkeit der erfindungsgemäßen Verbindungen bei vorzeitigen Extrasystolen charakterisiert.

[3] = Acute toxicity LD50 in rats, i.v.; conditions: rat, in vivo, iv; Ratte (i.v.); read-out: LD₅₀
[4] = Acute toxicity LD50 in mice, i.v.; conditions: mouse, in vivo, iv; Maus (i.v.); read-out: LD₅₀

CCC(C)(C)NCC(O)COc1cccc(CCC(=O)c2c(C)cc(C)cc2C)c1.Cl (stereo not drawn) [Beispiel 11, 1-(2,4,6-Trimethylphenyl)-3-[3′-(2-hydroxy-3-tert.-pentylaminopropoxy)-phenyl]-1-propanon-hydrochlorid]
IC20 [1]: 10 µM | IC20 [2]: 3.3 µM | Prematurity Faktor Vmax [2]: 0,95 | Rate-Faktor von Vmax [2]: 1,15

COc1ccc(CCC(=O)c2cc(OC)c(OC)c(OC)c2)cc1OCC(O)CNC(C)C.Cl (stereo not drawn) [Beispiel 30, 1-(3,4,5-Trimethoxyphenyl)-3-[3′-(2-hydroxy-3-isopropylaminopropoxy)-4′-methoxyphenyl]-1-propanon-hydrochlorid]
IC20 [1]: 5 µM | IC20 [2]: 2.5 µM | Prematurity Faktor Vmax [2]: 1,01 | Rate-Faktor von Vmax [2]: 1,13

COc1cc(C(=O)CCc2cccc(OCC(O)CNC(C)(C)C)c2)cc(OC)c1OC.Cl (stereo not drawn) [Beispiel 10, 1-(3,4,5-Trimethoxyphenyl)-3-[3′-(2-hydroxy-3-tert.-butylaminopropoxy)-phenyl]-1-propanon-hydrochlorid]
IC20 [1]: 5 µM | IC20 [2]: 2.6 µM | Prematurity Faktor Vmax [2]: 0,99 | Rate-Faktor von Vmax [2]: 1,17

Cc1cc(C)c(CC(=O)Cc2cccc(OCC(O)CNC(C)(C)C)c2)c(C)c1.Cl (stereo not drawn) [Beispiel 17, 1-(2,4,6-Trimethylphenyl)-3-[3′-(2-hydroxy-3-tert.-butylaminopropoxy)-phenyl]-propanon-hydrochlorid]
IC20 [1]: 15 µM | IC20 [2]: 1.7 µM | Prematurity Faktor Vmax [2]: 0,99 | Rate-Faktor von Vmax [2]: 1,12

CCC(C)(C)NCC(O)COc1cc(CCC(=O)c2ccc3ccccc3c2)ccc1OC.Cl (stereo not drawn) [Beispiel 47, 1-(2-Naphthyl)-3-[3′-(2-hydroxy-3-tert.-pentylaminopropoxy)-4′-methoxyphenyl]-1-propanon-hydrochlorid]
IC20 [1]: 17 µM | IC20 [2]: 6.1 µM | Prematurity Faktor Vmax [2]: 1,10 | Rate-Faktor von Vmax [2]: 1,22

CCCNCC(O)COc1cccc(CCC(=O)c2ccc(OC)cc2)c1.Cl (stereo not drawn) [Beispiel 7, 1-(4-Methoxyphenyl)-3-[3′-(2-hydroxy-3-n-propylaminopropoxy)-phenyl]-1-propanon-hydrochlorid]
IC20 [1]: 6 µM | IC20 [2]: 2.9 µM | Prematurity Faktor Vmax [2]: 0,90 | Rate-Faktor von Vmax [2]: 1,21

COc1ccc(CCC(=O)c2ccc3ccccc3c2)cc1OCC(O)CNC(C)C.Cl (stereo not drawn) [Beispiel 49, 1-(2-Naphthyl)-3-[3′-(2-hydroxy-3-isopropylaminopropoxy)-4′-methoxyphenyl]-1-propanon-hydrochlorid]
IC20 [1]: 14 µM | IC20 [2]: 12.1 µM | Prematurity Faktor Vmax [2]: 0,50 | Rate-Faktor von Vmax [2]: 4,00

COc1ccc(CCC(=O)c2cc(OC)c(OC)c(OC)c2)cc1OCC(O)CNC(C)(C)C.Cl (stereo not drawn) [Beispiel 31, 1-(3,4,5-Trimethoxyphenyl)-3-[3′-(2-hydroxy-3-tert.-butylaminopropoxy)-4′-methoxyphenyl]-1-propanon-hydrochlorid]
LD50 [3]: 13 mg/kg | IC20 [1]: 5 µM | IC20 [2]: 1.4 µM | Prematurity Faktor Vmax [2]: 0,97 | Rate-Faktor von Vmax [2]: 1,15 | LD50 [4]: 18 mg/kg

CCCNCC(O)COc1cc(CCC(=O)c2c(C)cc(C)cc2C)ccc1OC.O=C(O)C(=O)O (stereo not drawn) [Beispiel 44, 1-(2,4,6-Trimethylphenyl)-3-[3′-(2-hydroxy-3-n-propylaminopropoxy)-4′-methoxyphenyl]-1-propanon-oxalat]
IC20 [1]: 14 µM | IC20 [2]: 1.7 µM | Prematurity Faktor Vmax [2]: 1,10 | Rate-Faktor von Vmax [2]: 1,03

COc1ccc(CCC(=O)c2ccc(C)cc2)cc1OCC(O)CN1CCCCC1.Cl (stereo not drawn) [Beispiel 40, 1-(4-Methylphenyl)-3-[3′-(2-hydroxy-3-piperidinopropoxy)-4′-methoxyphenyl]-1-propanon-hydrochlorid]
IC20 [1]: 5 µM | IC20 [2]: 1.3 µM | Prematurity Faktor Vmax [2]: 0,94 | Rate-Faktor von Vmax [2]: 1,33

CCCNCC(O)COc1cc(CCC(=O)c2ccc(C)cc2)ccc1OC.Cl (stereo not drawn) [Beispiel 37, 1-(4-Methylphenyl)-3-[3′-(2-hydroxy-3-n-propylaminopropoxy)-4′-methoxyphenyl]-1-propanon-hydrochlorid]
IC20 [1]: 5 µM | IC20 [2]: 2.6 µM | Prematurity Faktor Vmax [2]: 0,94 | Rate-Faktor von Vmax [2]: 1,22

CCC(C)(C)NCC(O)COc1cc(CCC(=O)c2ccc(C)cc2)ccc1OC.Cl (stereo not drawn) [Beispiel 36, 1-(4-Methylphenyl)-3-[3′-(2-hydroxy-3-tert.-pentylaminopropoxy)-4′-methoxyphenyl]-1-propanon-hydrochlorid]
LD50 [3]: 10 mg/kg | IC20 [1]: 8 µM | IC20 [2]: 2.8 µM | Prematurity Faktor Vmax [2]: 0,99 | Rate-Faktor von Vmax [2]: 1,41 | LD50 [4]: 18 mg/kg

COc1cc(C(=O)CCc2cccc(OCC(O)CNC(C)C)c2)cc(OC)c1OC.Cl (stereo not drawn) [Beispiel 9, 1-(3,4,5-Trimethoxyphenyl)-3-[3′-(2-hydroxy-3-isopropylaminopropoxy)-phenyl]-1-propanon-hydrochlorid]
IC20 [1]: 15 µM | IC20 [2]: 9.1 µM | Prematurity Faktor Vmax [2]: 1,01 | Rate-Faktor von Vmax [2]: 1,26

CCC(C)(C)NCC(O)COc1cccc(CCC(=O)c2cc(OC)c(OC)c(OC)c2)c1.Cl (stereo not drawn) [Beispiel 8, 1-(3,4,5-Trimethoxyphenyl)-3-[3′-(2-hydroxy-3-tert.-pentylaminopropoxy)-phenyl]-1-propanon-hydrochlorid]
IC20 [1]: 3 µM | IC20 [2]: 1.6 µM | Rate-Faktor von Vmax [2]: 5,00

Cc1cc(C)c(C(=O)CCc2cccc(OCC(O)CNC(C)(C)C)c2)c(C)c1.Cl (stereo not drawn) [Beispiel 14, 1-(2,4,6-Trimethylphenyl)-3-[3′-(2-hydroxy-3-tert.-butylaminopropoxy)-phenyl]-1-propanon-hydrochlorid]
IC20 [1]: 20 µM | IC20 [2]: 11.9 µM | Prematurity Faktor Vmax [2]: 0,95 | Rate-Faktor von Vmax [2]: 1,47

Cc1cc(C)c(C(=O)CCc2cccc(OCC(O)CNC(C)C)c2)c(C)c1.Cc1cc(C)c(C(=O)CCc2cccc(OCC(O)CNC(C)C)c2)c(C)c1.O=C(O)C(=O)O (stereo not drawn) [Beispiel 15, 1-(2,4,6-Trimethylphenyl)-3-[3′-(2-hydroxy-3-isopropylaminopropoxy)-phenyl]-1-propanon-semi-oxalat]
C20 CF [1]: 7,0 µM | C20 Vmax [2]: 1,0 µM | Prematurity Faktor Vmax [2]: 0,94 | Rate-Faktor von Vmax [2]: 1,09

CCCNCC(O)COc1ccccc1C(=O)CCc1ccccc1 (stereo not drawn) [A, Propafenon, reference compound]
C20 CF [1]: 5,3 µM | C20 Vmax [2]: 3,7 µM | Prematurity Faktor Vmax [2]: 0,97 | Rate-Faktor von Vmax [2]: 1,08

CCC(C)(C)NCC(O)COc1cc(CCC(=O)c2ccc(OC)c(OC)c2)ccc1OC.Cl (stereo not drawn) [Beispiel 27, 1-(3,4-Dimethoxyphenyl)-3-[3′-(2-hydroxy-3-tert.-pentylaminopropoxy)-4′-methoxyphenyl]-1-propanon-hydrochlorid]
IC20 [1]: 15 µM | IC20 [2]: 3.5 µM | Prematurity Faktor Vmax [2]: 1,05 | Rate-Faktor von Vmax [2]: 1,25

COc1ccc(CCC(=O)c2ccc(C)cc2)cc1OCC(O)CNC(C)(C)C.Cl (stereo not drawn) [Beispiel 39, 1-(4-Methylphenyl)-3-[3′-(2-hydroxy-3-tert.-butylaminopropoxy)-4′-methoxyphenyl]-1-propanon-hydrochlorid]
IC20 [1]: 4 µM | IC20 [2]: 1.2 µM | Prematurity Faktor Vmax [2]: 0,94 | Rate-Faktor von Vmax [2]: 1,51

CCCNCC(O)COc1cc(CCC(=O)c2ccc(OC)c(OC)c2)ccc1OC.Cl (stereo not drawn) [Beispiel 22, 1-(3,4-Dimethoxyphenyl)-3-[3′-(2-hydroxy-3-n-propylaminopropoxy)-4′-methoxyphenyl]-1-propanon-hydrochlorid]
IC20 [1]: 7 µM | IC20 [2]: 3.2 µM | Prematurity Faktor Vmax [2]: 0,99 | Rate-Faktor von Vmax [2]: 0,97

COc1ccc(CCC(=O)c2cc(OC)c(OC)c(OC)c2)cc1OCC(O)CNC1CCCCC1.Cl (stereo not drawn) [Beispiel 32, 1-(3,4,5-Trimethoxyphenyl)-3-[3′-(2-hydroxy-3-cyclohexylaminopropoxy)-4′-methoxyphenyl]-1-propanon-hydrochlorid]
IC20 [1]: 9 µM | IC20 [2]: 1.1 µM | Prematurity Faktor Vmax [2]: 1,05 | Rate-Faktor von Vmax [2]: 1,25

COc1ccc(CCC(=O)c2ccccc2OC)cc1OCC(O)CNC(C)(C)C.Cl (stereo not drawn) [Beispiel 35, 1-(2-Methoxyphenyl)-3-[3′-(2-hydroxy-3-tert.-butylaminopropoxy)-4′-methoxyphenyl]-1-propanon-hydrochlorid]
IC20 [1]: 10 µM | IC20 [2]: 3 µM | Prematurity Faktor Vmax [2]: 0,91

CCCNCC(O)COc1cc(CCC(=O)c2ccc3ccccc3c2)ccc1OC.Cl (stereo not drawn) [Beispiel 48, 1-(2-Napthyl)-3-[3′-(2-hydroxy-3-n-propylaminopropoxy)-4′-methoxyphenyl]-1-propanon-hydrochlorid]
C20 CF [1]: 9,0 µM | C20 Vmax [2]: 1,1 µM | Prematurity Faktor Vmax [2]: 0,90 | Rate-Faktor von Vmax [2]: 1,43

COc1ccc(C(=O)CCc2ccc(OC)c(OCC(O)CNC(C)(C)C)c2)cc1OC.Cl (stereo not drawn) [Beispiel 25, 1-(3,4-Dimethoxyphenyl)-3-[3′-(2-hydroxy-3-tert.-butylaminopropoxy)-4′-methoxyphenyl]-1-propanon-hydrochlorid]
IC20 [1]: 6 µM | IC20 [2]: 2.4 µM | Prematurity Faktor Vmax [2]: 1,01 | Rate-Faktor von Vmax [2]: 1,21

COc1ccc(C(=O)CCc2ccc(OC)c(OCC(O)CNC(C)C)c2)cc1OC.Cl (stereo not drawn) [Beispiel 23, 1-(3,4-Dimethoxyphenyl)-3-[3′-(2-hydroxy-3-isopropylaminopropoxy)-4′-methoxyphenyl]-1-propanon-hydrochlorid]
IC20 [1]: 6 µM | IC20 [2]: 2.2 µM | Prematurity Faktor Vmax [2]: 1,05 | Rate-Faktor von Vmax [2]: 5,00
